The structures appear in SMILES notation.

Data set [1] can be described thus: Cell viability test in MTT. It is filed as cell-based, human. The settings on record: human, SH-SY5Y neuroblastoma cells, 96 h of incubation, read-out: reduction of cell viability. The procedure:
(§1) Cells from SH-SY5Y human neuroblastomas were cultured in a DMEM medium containing 4.5 g·L^−1 glucose, 10% fetal calf serum, and 1% penicillin/streptomycin, and placed in an incubator at 37° C. with 7% CO2.
(§2) In the various experiments, the SH-SY5Y cells were seeded at a density of 4×10^4 cells/mL. 24 h after seeding, the cells were exposed to the various test compounds at 37° C. for 24 h, 48 h, 72 h, or 96 h.
(§3) This test consisted of rapidly measuring cellular metabolic activity in the presence of the study compound at different concentrations, in order to conduct a dose-response study. To do this, the tetrazolium salt MTT, 3-(4,5-dimethylthiazol-2-yl)-2,5-diphenyltetrazolium bromide (Amoroso et al., Biochim Biophys Acta, 1999, 1452(2):151-60), was placed in contact with the cells. MTT is reduced to formazan by living cells that have the capacity to metabolize it, unlike dead cells. To conduct this test, SH-SY5Y neuronal cells in 48-well plates were incubated for 24 h, 48 h, 72 h, and 96 h, with furosemide pyridinium at concentrations ranging from 0 to 1000 μM. Then MTT (0.5 mg/ml final) was added to each well and incubated at 37° C. for 2 h. At the end of incubation, after carefully removing the medium, DMSO was added (200 μL) to dissolve the cell membranes and the formazan crystals formed by the living cells. The toxicity of the molecule was evaluated by determining the amount of reduced MTT, doing so by measuring the absorbance at 550 nm as this value is proportional to the number of living cells. The results were expressed as a function of the values obtained for cells treated only with the solvent used to dissolve the compound of interest. To compare the toxicity of furosemide pyridinium to that of MPP+, the cells were incubated in the presence of MPP+ (0 to 1000 μM) for 6 h. The culture medium was replaced and the cells were incubated at 37° C. for an additional 24 h (no MPP+). Cell survival was measured at the end of these 24 hours of incubation as described above. When evaluating the effect of different concentrations of α-tocopherol (vitamin E), a membrane antioxidant, the cells were pretreated for 24 h with this antioxidant before being exposed to furosemide pyridinium at a concentration of 0.5 mM under the same experimental conditions as above.

The test system of data set [2] is SH-SY5Y neuronal cells. Description: Cell viability test in MTT. It is filed as cell-based, human. The procedure:
as §1, §2, §3

Data set [3] relates to caspase-3. Description: Caspase-3 activity (Ac-DEVD-AFC cleavage) in SH-SY5Y cells. Format: cell-based, human. The settings on record: 1 mM, 96 h. The procedure:
Measurement of the activities of the various caspases is based on the ability of the caspases to cleave specific fluorescent substrates: Ac-DEVD-AFC for caspase-3, Ac-IETD-AFC for caspase-8, or Ac-LEHD-AFC for caspase-9. SH-SY5Y neuronal cells were incubated in 48-well plates with either furosemide pyridinium (1 mM) for 96 h or with MPP+ (1 mM) for 6 h, then 24 h of incubation with no MPP+. After incubation, the cells were trypsinized, then rinsed with PBS and counted, then harvested in 100 μl of buffer containing 30 mM HEPES, 0.3 mM EDTA, 100 mM NaCl, 0.15% Triton X-100, and 10 mM DTT. The cell extract was then incubated for 1 hour at 37° C. with the specific substrate (100 μM) in a 96-well plate. Fluorescence was measured at λex400 nm and λem505 nm in a fluorescence detection plate reader (TECAN Infinite M1000) (Yue et al., supra). The results were expressed as percentages relative to the measured activity of cells cultured under the same conditions and not subjected to any treatment.

For data set [4], the system named is respiratory chain complexes II-V of rat cerebral cortex mitochondria. Description: Respiratory control after induction of complex II by succinate and inhibition of complex I by rotenone. As to conditions: 1 mM, succinate. It is filed as biochemical. The procedure:
The animal was then decapitated in order to collect from the brain either the cortex or the striatum, which were quickly placed in a Potter Elvejhem® containing 6 ml of extraction buffer at 4° C. (250 mM sucrose, 40 mM KCl, 2 mM EGTA, lmg/ml BSA, 20 mM Tris, pH=7.2). This mixture was homogenized to break open the cells and release the mitochondria and then centrifuged at 2000 g for 8 minutes to remove the larger membrane debris and the nuclei from the pellet. The supernatant was then recovered and centrifuged at 13,000 g for 11 minutes. The supernatant was discarded while the pellet containing a mitochondria-rich fraction was resuspended in 500 μl of respiration buffer at 4° C. (300 mM D-mannitol, 10 mM KCl, 10 mM KH2PO4, 5 mM MgCl2, pH=7.2). […]
Added to the polarography chamber (Hansatech) were 30 μl of mitochondria solution (0.2 mg), 460 μL of respiration buffer, 5 μl of test compound solution (meaning MPP+ or furosemide pyridinium) (or its solubilizing solvent). […] The effect of the compound on respiratory control was evaluated (ratio of stage 3 to 4), which corresponds to the coupling of the respiratory chain, or in other words the ATP synthesis at complex V and the oxygen consumption due to complexes I to IV. The results are expressed as percentages of the value measured for mitochondria not treated with the test compound (but treated with the solubilizing solvent). […]

Data set [5] concerns mitochondrial respiratory chain. Description: Respiratory chain activity of mitochondria from striata of exposed mice. Format: in vivo, mouse. As to conditions: 20 mg/kg/day oral 7 days, 30 days after end of exposure. The procedure: Added to the polarography chamber (Hansatech) were 30 μl of mitochondria solution (0.2 mg), 460 μL of respiration buffer, 5 μl of test compound solution (meaning MPP+ or furosemide pyridinium) (or its solubilizing solvent). Then 5 μl of a 10/10 mM mixture of malate-pyruvate substrates were added, which allowed the respiratory chain to function (stage 2) starting from complex I. After about 40 seconds, 5 μl of 200 μM ADP were added, resulting in an increase in oxygen consumption as the ADP activated complex V (stage 3). Once all the ADP was consumed, the oxygen consumption returned to an initial stage (stage 4) that is equivalent to stage 2. The effect of the compound on respiratory control was evaluated (ratio of stage 3 to 4), which corresponds to the coupling of the respiratory chain, or in other words the ATP synthesis at complex V and the oxygen consumption due to complexes I to IV. The results are expressed as percentages of the value measured for mitochondria not treated with the test compound (but treated with the solubilizing solvent).
Swiss mice were divided into two groups of five animals (experimental and control). The experiments were performed independently two times. The mice of the experimental group were exposed to furosemide pyridinium for 7 days at a daily dose of 20 mg/kg. The furosemide pyridinium was administered orally in the drinking water. […]

For the molecule `NS(=O)(=O)c1cc(C(=O)[O-])c(-[n+]2cccc(O)c2)cc1Cl` [furosemide pyridinium, 4-chloro-2-(3-hydroxypyridinium-1-yl)-5-sulfamoylbenzoate], the cytotoxicity at 96 h in data set [1] is roughly 60%. The “decrease in cell survival” value in data set [2] (0.5 mM, 96 h) is “about 20%”. The “effect on cell survival” value in data set [2] (24 h of incubation, even at 1 mM) is reported as “no significant effect”. Moreover, in data set [2] (Homo sapiens, 96 h of incubation, estimated, read-out: EC50 (cell survival)), the EC50 is 973 µM. Also, the “activity of caspase-3 compared to untreated cells” value in data set [3] was determined as 179%. The “respiratory control of cortex mitochondria after induction by complex II” value in data set [4] is “not modified”. Besides, the “decrease in respiratory control of striatal mitochondria vs control animals” value in data set [5] was 28%.
